Data: patent US20220411495A1, “POSITIVE ALLOSTERIC MODULATORS OF THE CALCIUM-SENSING RECEPTOR” (VIB VZW, priority 2019, published 2022)

Target: T1, CaSR 7-transmembrane domain allosteric binding site (Homo sapiens, UniProt P41180)
T1 sequence (P41180 20-1078): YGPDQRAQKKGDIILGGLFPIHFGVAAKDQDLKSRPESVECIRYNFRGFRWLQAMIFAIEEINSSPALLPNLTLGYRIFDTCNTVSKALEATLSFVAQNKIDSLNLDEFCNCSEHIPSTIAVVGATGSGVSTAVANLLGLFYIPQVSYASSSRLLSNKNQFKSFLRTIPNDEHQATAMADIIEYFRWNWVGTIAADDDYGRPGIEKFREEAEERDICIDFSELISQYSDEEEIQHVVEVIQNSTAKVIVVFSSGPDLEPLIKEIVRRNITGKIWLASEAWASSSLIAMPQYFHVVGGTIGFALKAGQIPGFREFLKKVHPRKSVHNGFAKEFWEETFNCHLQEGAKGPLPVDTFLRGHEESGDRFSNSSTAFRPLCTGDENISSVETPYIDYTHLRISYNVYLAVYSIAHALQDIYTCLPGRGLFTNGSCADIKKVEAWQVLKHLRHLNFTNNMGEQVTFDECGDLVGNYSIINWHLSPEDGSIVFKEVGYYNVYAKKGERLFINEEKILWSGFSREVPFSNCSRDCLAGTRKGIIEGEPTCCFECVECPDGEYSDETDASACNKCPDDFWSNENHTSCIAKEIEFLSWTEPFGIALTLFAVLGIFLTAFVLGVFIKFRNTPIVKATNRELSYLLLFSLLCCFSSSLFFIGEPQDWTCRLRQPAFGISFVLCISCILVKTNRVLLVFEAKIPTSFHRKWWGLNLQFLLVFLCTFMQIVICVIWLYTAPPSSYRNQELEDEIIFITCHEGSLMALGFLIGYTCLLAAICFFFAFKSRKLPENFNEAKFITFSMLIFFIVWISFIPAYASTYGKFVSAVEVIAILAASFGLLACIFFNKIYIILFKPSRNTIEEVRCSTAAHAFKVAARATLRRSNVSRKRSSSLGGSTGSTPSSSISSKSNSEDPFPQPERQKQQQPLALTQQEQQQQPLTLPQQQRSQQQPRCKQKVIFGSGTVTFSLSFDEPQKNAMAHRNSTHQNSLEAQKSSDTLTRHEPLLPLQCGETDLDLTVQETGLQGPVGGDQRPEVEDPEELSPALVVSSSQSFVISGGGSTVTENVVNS
Assay: [3H]evocalcet radioligand displacement
Protocol: For the seven different nanobodies with potencies in the 10 to 600 nM range, further characterization of their recognition site on the CaSR antigen was performed, since the identification of the nanobody binding-sites at the CaSR is key to understand their interaction and mode-of-action at a molecular and structural level, and will further aid in the development of second-generation nanobodies with enhanced pharmacological parameters. Nanobodies belonging to each family of the five different nanobody families are expected to interact with distinct regions of the CaSR.

CC(C)(Cc1ccc2ccccc2c1)NC[C@@H](O)COc1cccc(Cl)c1C#N [NPS 2143]
Displacement of [3H]evocalcet binding: did displace
